Measured values taken from patent US20070107077A1, “Microprojectile bombardment transformation of brassica” (Pioneer Hi-Bred International, Inc., priority 2005, published 2007).
Several values for one entry are separate records, joined by “and”; a condition that tells them apart may be missing. Identical values can stand only once. Counter-ions that a name gives are not always drawn.

Tests used:
Set-up in all cases: species or system Brassica
[1] = test system: non-transgenic microspores; assay: Selection kill curve using Geneticin (G418): embryo growth and survival in liquid medium
From the text: The objective was to determine the concentration of G418 that kills non-transgenic microspores.
(§1) Prior to this experiment, selection was done on solid medium, not in liquid medium. Using liquid selection for Brassica transgenic cells is novel. Selection in liquid medium is advantageous for at least the following reasons: (a) it allows selection at an early stage, thereby eliminating the need for subsequent transfers of explants, (b) it allows for a cleaner selection because the explants are generally smaller when they are in liquid medium and the liquid allows all the surfaces of the explant to be exposed to the selection agent, (c) it may reduce the frequency of chimeras, and (d) a lower amount of the selection agent is needed therefore reducing the toxicity to the researcher and the environment. The effect of various concentrations of kanamycin on embryo growth in liquid medium was tested. […] Accordingly, it was difficult to discriminate transgenic tissue or embryos from non-transgenic.

[2] = test system: pre-incubated microspores bombarded with PHP22021 and PHP22024; assay: Glyphosate resistant embryo selection in liquid medium NLN-6.5S after bombardment
Description: Pre-incubated microspores were used as bombarded materials. Any Brassica line that is capable of regenerating by microspore culture can be used. The microspores were cultured for 1-3 days in NLN-17S at 31.5° C, and then in NLN-10S for 4-5 days at 25° C. The constructs used in the bombardments were PHP18644, PHP21965, PHP22024, PHP22021, and PHP23560 (see Table 9). The constructs can be the full plasmid or the expression cassette only. For example, PHP22024 can be either the expression cassette or the full plasmid. The pre-incubated microspores were filtrated with sieves of pore size of […] to 36 μm. The collected microspores were used for bombardment. The microspores were loaded on a sieve 15 μm or 20 μm on two layers of filter-paper and dried for less than one minute. The microspores and sieves were transferred to osmotic medium that contained B5 components, 1 g/l MES and 0.8-1.6% gelrite, 15-21% sucrose (pH 6.0). The microspores were treated for at least one hour on the osmotic medium before bombardment. The pre-incubated microspores were bombarded with 12.5 ng to 5 μg DNA per preparation, 15-100 μg Au particles per shot, 2.5 M CaCl2, and 650-900 psi rupture disk. […] Resistant embryos were recorded after two to three weeks of culture. […]

non-bombarded embryos = assay: Effect of kanamycin on embryo growth in liquid medium, non-bombarded embryos
From the text: as §1

CN[C@@H]1[C@@H](O)[C@@H](O[C@@H]2[C@@H](O)[C@H](O[C@H]3O[C@H]([C@@H](C)O)[C@@H](O)[C@H](O)[C@H]3N)[C@@H](N)C[C@H]2N)OC[C@]1(C)O [G418, G418 disulfate salt]
# Green embryos or with green island ([1]; G418 1.25 mg/l, disulfate salt): 30 (paler) and 28 (paler)
# Green embryos or with green island ([1]; G418 2.5 mg/l, disulfate salt): 14 (light green, smaller size) and 11 (light green, smaller size)
# Green embryos or with green island ([1]; G418 5 mg/l): 0
# Green embryos or with green island ([1]; G418 10 mg/l): 0
concentration sufficient to differentiate transformed cells from untransformed cells (cleaner selection) ([1]; NLN with 6.5% sucrose medium): 5 to 10 mg/L

O=C(O)CNCP(=O)(O)O [Glyphosate, glyphosate]
# embryos (abnormal)/plate ([2]; glyphosate 0.2 mM, plasmid PHP22021): 0
selection efficiency, false positives ([2]; selection at 0.2 mM compared with 0.1 mM glyphosate): fewer false positive results

NC[C@H]1O[C@H](O[C@H]2[C@H](O)[C@@H](O[C@H]3O[C@H](CO)[C@@H](O)[C@H](N)[C@H]3O)[C@H](N)C[C@@H]2N)[C@H](O)[C@@H](O)[C@@H]1O [kanamycin]
concentration sufficient to bleach non-bombarded embryos and inhibit non-bombarded embryo growth (non-bombarded embryos): 10 mg/L
